# ChEMBL document CHEMBL5120845, “Design and synthesis of novel macrolones bridged with linkers from 11,12-positions of macrolides” (Bioorg Med Chem Lett, 2022)
# Assays:
# Format in all cases: functional
# [1] = test system: Streptococcus pneumoniae; assay: Antibacterial activity against Streptococcus pneumoniae PU09 by microbroth dilution method
# [2] = test system: Streptococcus pneumoniae; assay: Antibacterial activity against Streptococcus pneumoniae 07P390 by microbroth dilution method
# [3] = test system: Staphylococcus aureus; assay: Antibacterial activity against Staphylococcus aureus PU32 by microbroth dilution method
# [4] = test system: Staphylococcus aureus; assay: Antibacterial activity against Staphylococcus aureus 15B196 by microbroth dilution method
# [5] = test system: Streptococcus pneumoniae; assay: Antibacterial activity against Streptococcus pneumoniae ATCC 49619 by microbroth dilution method
# [6] = test system: Streptococcus pyogenes; assay: Antibacterial activity against Streptococcus pyogenes 12-206 by microbroth dilution method
# [7] = test system: Haemophilus influenzae; assay: Antibacterial activity against Haemophilus influenzae ATCC 49247 by microbroth dilution method
MIC [1],MIC [2],MIC [3],MIC [4],MIC [5],MIC [6],MIC [7],Structure (SMILES)
1 µg/mL,32 µg/mL,0.5 µg/mL,256 µg/mL,≤ 0.008 µg/mL,2 µg/mL,8 µg/mL,CC[C@H]1OC(=O)[C@H](C)C(=O)[C@H](C)[C@@H](O[C@@H]2O[C@H](C)C[C@H](N(C)C)[C@H]2O)[C@](C)(OC)C[C@@H](C)C(=O)[C@H](C)[C@H]2N(CC/C=C\c3ccc4c(c3)c(=O)c(C(=O)O)cn4C3CC3)C(=O)O[C@]12C
1 µg/mL,2 µg/mL,4 µg/mL,256 µg/mL,0.03 µg/mL,2 µg/mL,32 µg/mL,CC[C@H]1OC(=O)[C@H](C)C(=O)[C@H](C)[C@@H](O[C@@H]2O[C@H](C)C[C@H](N(C)C)[C@H]2O)[C@](C)(OC)C[C@@H](C)C(=O)[C@H](C)[C@H]2N(CCCC#Cc3ccc4c(=O)c(C(=O)O)cn(C5CC5)c4c3)C(=O)O[C@]12C
0.12 µg/mL,128 µg/mL,1 µg/mL,512 µg/mL,0.06 µg/mL,32 µg/mL,128 µg/mL,CC[C@H]1OC(=O)[C@H](C)C(=O)[C@H](C)[C@@H](O[C@@H]2O[C@H](C)C[C@H](N(C)C)[C@H]2O)[C@](C)(OC)C[C@@H](C)C(=O)[C@H](C)[C@H]2N(CCC#Cc3ccc4c(=O)c(C(N)=O)cn(C5CC5)c4c3)C(=O)O[C@]12C
0.25 µg/mL,32 µg/mL,1 µg/mL,512 µg/mL,0.03 µg/mL,4 µg/mL,32 µg/mL,CC[C@H]1OC(=O)[C@H](C)C(=O)[C@H](C)[C@@H](O[C@@H]2O[C@H](C)C[C@H](N(C)C)[C@H]2O)[C@](C)(OC)C[C@@H](C)C(=O)[C@H](C)[C@H]2N(CCCCc3ccc4c(=O)c(C(N)=O)cn(C5CC5)c4c3)C(=O)O[C@]12C
2 µg/mL,2 µg/mL,4 µg/mL,256 µg/mL,0.03 µg/mL,1 µg/mL,32 µg/mL,CC[C@H]1OC(=O)[C@H](C)C(=O)[C@H](C)[C@@H](O[C@@H]2O[C@H](C)C[C@H](N(C)C)[C@H]2O)[C@](C)(OC)C[C@@H](C)C(=O)[C@H](C)[C@H]2N(CCN3CCN(c4cc5c(cc4F)c(=O)c(C(=O)O)cn5C4CC4)CC3)C(=O)O[C@]12C
2 µg/mL,2 µg/mL,8 µg/mL,32 µg/mL,0.25 µg/mL,8 µg/mL,32 µg/mL,CC[C@H]1OC(=O)[C@H](C)C(=O)[C@H](C)[C@@H](O[C@@H]2O[C@H](C)C[C@H](N(C)C)[C@H]2O)[C@](C)(OC)C[C@@H](C)C(=O)[C@H](C)[C@H]2N(CCN3CCN(c4c(F)cc5c(=O)c(C(=O)O)cn(C6CC6)c5c4OC)CC3)C(=O)O[C@]12C
1 µg/mL,16 µg/mL,4 µg/mL,128 µg/mL,≤ 0.008 µg/mL,2 µg/mL,16 µg/mL,CC[C@H]1OC(=O)[C@H](C)C(=O)[C@H](C)[C@@H](O[C@@H]2O[C@H](C)C[C@H](N(C)C)[C@H]2O)[C@](C)(OC)C[C@@H](C)C(=O)[C@H](C)[C@H]2N(CCCCCC#Cc3ccc4c(=O)c(C(=O)O)cn(C5CC5)c4c3)C(=O)O[C@]12C
2 µg/mL,256 µg/mL,2 µg/mL,512 µg/mL,0.12 µg/mL,8 µg/mL,128 µg/mL,CC[C@H]1OC(=O)[C@H](C)C(=O)[C@H](C)[C@@H](O[C@@H]2O[C@H](C)C[C@H](N(C)C)[C@H]2O)[C@](C)(OC)C[C@@H](C)C(=O)[C@H](C)[C@H]2N(CCCN3CCN(c4cc5c(cc4F)c(=O)c(C(N)=O)cn5C4CC4)CC3)C(=O)O[C@]12C
2 µg/mL,128 µg/mL,4 µg/mL,512 µg/mL,0.03 µg/mL,4 µg/mL,128 µg/mL,CC[C@H]1OC(=O)[C@H](C)C(=O)[C@H](C)[C@@H](O[C@@H]2O[C@H](C)C[C@H](N(C)C)[C@H]2O)[C@](C)(OC)C[C@@H](C)C(=O)[C@H](C)[C@H]2N(CCCC#Cc3ccc4c(=O)c(C(N)=O)cn(C5CC5)c4c3)C(=O)O[C@]12C
1 µg/mL,16 µg/mL,4 µg/mL,128 µg/mL,≤ 0.008 µg/mL,1 µg/mL,4 µg/mL,CC[C@H]1OC(=O)[C@H](C)C(=O)[C@H](C)[C@@H](O[C@@H]2O[C@H](C)C[C@H](N(C)C)[C@H]2O)[C@](C)(OC)C[C@@H](C)C(=O)[C@H](C)[C@H]2N(CCCCCCC#Cc3ccc4c(c3)c(=O)c(C(=O)O)cn4C3CC3)C(=O)O[C@]12C
1 µg/mL,8 µg/mL,1 µg/mL,32 µg/mL,≤ 0.008 µg/mL,1 µg/mL,16 µg/mL,CC[C@H]1OC(=O)[C@H](C)C(=O)[C@H](C)[C@@H](O[C@@H]2O[C@H](C)C[C@H](N(C)C)[C@H]2O)[C@](C)(OC)C[C@@H](C)C(=O)[C@H](C)[C@H]2N(CCC#Cc3ccc4c(c3)c(=O)c(C(N)=O)cn4C3CC3)C(=O)O[C@]12C
1 µg/mL,32 µg/mL,8 µg/mL,128 µg/mL,≤ 0.008 µg/mL,2 µg/mL,32 µg/mL,CC[C@H]1OC(=O)[C@H](C)C(=O)[C@H](C)[C@@H](O[C@@H]2O[C@H](C)C[C@H](N(C)C)[C@H]2O)[C@](C)(OC)C[C@@H](C)C(=O)[C@H](C)[C@H]2N(CCCCCC#Cc3ccc4c(c3)c(=O)c(C(=O)O)cn4C3CC3)C(=O)O[C@]12C
1 µg/mL,256 µg/mL,2 µg/mL,512 µg/mL,0.06 µg/mL,4 µg/mL,32 µg/mL,CC[C@H]1OC(=O)[C@H](C)C(=O)[C@H](C)[C@@H](O[C@@H]2O[C@H](C)C[C@H](N(C)C)[C@H]2O)[C@](C)(OC)C[C@@H](C)C(=O)[C@H](C)[C@H]2N(CCC#Cc3ccc4c(c3)c(=O)c(C(=O)O)cn4C3CC3)C(=O)O[C@]12C
1 µg/mL,128 µg/mL,4 µg/mL,256 µg/mL,0.03 µg/mL,2 µg/mL,8 µg/mL,CC[C@H]1OC(=O)[C@H](C)C(=O)[C@H](C)[C@@H](O[C@@H]2O[C@H](C)C[C@H](N(C)C)[C@H]2O)[C@](C)(OC)C[C@@H](C)C(=O)[C@H](C)[C@H]2N(CCCC#Cc3ccc4c(c3)c(=O)c(C(=O)O)cn4C3CC3)C(=O)O[C@]12C

Structure (SMILES),MIC [1],MIC [2],MIC [3],MIC [4],MIC [5],MIC [6],MIC [7]
O=C(O)c1cn(C2CC2)c2cc(N3CCNCC3)c(F)cc2c1=O [CIPROFLOXACIN],2 µg/mL,2 µg/mL,32 µg/mL,1 µg/mL,1 µg/mL,0.25 µg/mL,0.03 µg/mL
CC[C@H]1OC(=O)[C@H](C)[C@@H](O[C@H]2C[C@@](C)(OC)[C@@H](O)[C@H](C)O2)[C@H](C)[C@@H](O[C@@H]2O[C@H](C)C[C@H](N(C)C)[C@H]2O)[C@](C)(OC)C[C@@H](C)C(=O)[C@H](C)[C@@H](O)[C@]1(C)O [CLARITHROMYCIN],8 µg/mL,512 µg/mL,64 µg/mL,512 µg/mL,0.03 µg/mL,512 µg/mL,16 µg/mL
